According to patent US7056940B2, “Insecticidal 3-(2,6-disubstituted phenyl)-5-[5-arylthien-2-yl]-1,2,4-triazoles” (Dow AgroSciences LLC, priority 2001, dated 2006):

Tests used:
Type in all cases: in vivo
[1] = tested on: Tobacco Budworm (Heliothis virescens); assay: Insecticidal test for tobacco budworm, treated cotton cotyledon leaf disc; set-up: key: A: 90–100; B: 80–89; C: 70–79; D: 60–69; E: 50–59; F: less than 50; G: Inactive; details: cotton cotyledon leaf-dip, 2nd instar larvae, 5 days
Description: (§1) The compounds are useful for reducing populations of insects and mites and are useful in a method of inhibiting an insect or mite population which comprises applying to a locus of the insect or mite an effective insect- or mite-inactivating amount of a compound of formula (1). The “locus” of insects or mites is a term used herein to refer to the environment in which the insects or mites live or where their eggs are present, including the air surrounding them, the food they eat, or objects which they contact. For example, insects or mites which eat or contact edible or ornamental plants can be controlled by applying the active compound to plant parts such as the seed, seedling, or cutting which is planted, the leaves, stems, fruits, grain, or roots, or to the soil in which the roots are growing. It is contemplated that the compounds might also be useful to protect textiles, paper, stored grain, seeds, domesticated animals, buildings or human beings by applying an active compound to or near such objects. The term “inhibiting an insect or mite” refers to a decrease in the numbers of living insects or mites, or a decrease in the number of viable insect or mite eggs. The extent of reduction accomplished by a compound depends, of course, upon the application rate of the compound, the particular compound used, and the target insect or mite species. At least an inactivating amount should be used. The terms “insect-inactivating amount” and “mite-inactivating amount” are used to describe the amount, which is sufficient to cause a measurable reduction in the treated insect or mite population. Generally an amount in the range from about 1 to about 1000 ppm by weight active compound is used. For example, insects and mites which can be inhibited include, but are not limited to: • Lepidoptera—Heliothis spp., Helicoverpa spp., Spodoptera spp., Mythimna unipuncta, Agrotis ipsilon, Earias spp., Euxoa auxiliaris, Trichoplusia ni, Anticarsia gemmatalis, Rachiplusia nu, Plutella xylostella, Chilo spp., Scirpophaga incertulas, Sesamia inferens, Cnaphalocrocis medinalis, Ostrinia nubilalis, Cydia pomonella, Carposina niponensis, Adoxophyes orana, Archips argyrospilus, Pandemis heparana, Epinotia aporema, Eupoecilia ambiguella, Lobesia botrana, Polychrosis viteana, Pectinophora gossypiella, Pieris rapae, Phyllonorycter spp., Leucoptera malifoliella, Phyllocnisitis citrella • Coleoptera—Diabrotica spp., Leptinotarsa decemlineata, Oulema oryzae, Anthonomus grandis, Lissorhoptrus oryzophilus, Agriotes spp., Melanotus communis, Popillia japonica, Cyclocephala spp., Tribolium spp. • Homoptera—Aphis spp., Myzus persicae, Rhopalosiphum spp., Dysaphis plantaginea, Toxoptera spp., Macrosiphum euphorbiae, Aulacorthum solani, Sitobion avenae, Metopolophium dirhodum, Schizaphis graminum, Brachycolus noxius, Nephotettix spp., Nilaparvata lugens, Sogatella furcifera, Laodelphax striatellus, Bemisia tabaci, Trialeurodes vaporariorum, Aleurodes proletella, Aleurothrixus floccosus, Quadraspidiotus perniciosus, Unaspis yanonensis, Ceroplastes rubens, Aonidiella aurantii • Hemiptera—Lygus spp., Eurygaster maura, Nezara viridula, Piezodorus guildingi, Leptocorisa varicornis • Thysanoptera—Frankliniella occidentalis, Thrips spp., Scirtothrips dorsalis • Isoptera—Reticulitermes flavipes, Coptotermes formosanus • Orthoptera—Blattella germanica, Blatta orientalis, Gryllotalpa spp. • Diptera—Liriomyza spp., Musca domestica, Aedes spp., Culex spp., Anopheles spp. • Hymenoptera—Iridomyrmex humilis, Solenopsis spp., Monomorium pharaonis, Atta spp., Pogonomyrmex spp., Camponotus spp. • Siphonaptera—Ctenophalides spp., Pulex irritans • Acarina—Tetranychus spp., Panonychus spp., Eotetranychus carpini, Phyllocoptruta oleivora, Aculus pelekassi, Brevipalpus phoenicis, Boophilus spp., Dermacentor variabilis, Rhipicephalus sanguineus, Amblyomma americanum, Ixodes spp., Notoedres cati, Sarcoptes scabiei, Dermatophagoides spp. […]

[2] = tested on: Beet Armyworm (Spodoptera exigua); assay: Insecticidal test for beet armyworm, treated lepidopteran diet; set-up: key: A: 90–100; B: 80–89; C: 70–79; D: 60–69; E: 50–59; F: less than 50; G: Inactive; details: on diet surface, second-instar larvae, 5 days
Description: as §1

[3] = tested on: Cabbage Looper (Trichoplusia ni); assay: Insecticidal test for cabbage looper, treated cabbage leaf disc; set-up: key: A: 90–100; B: 80–89; C: 70–79; D: 60–69; E: 50–59; F: less than 50; G: Inactive; details: cabbage leaf-dip, 2nd instar larvae, 5 days
Description: as §1

[4] = tested on: Cotton Aphid (Aphis gossypii); assay: Insecticidal test for cotton aphid, spray on infested squash cotyledons; details: 50 ppm spray, 3 days
Experimental: Insecticidal Test for Cotton Aphid (Aphis gossypii)
To prepare spray solutions, 1 mg of each test compound was dissolved into 1 mL of a 90:10 acetone:ethanol solvent. This 1 mL of chemical solution was added to 19 mL of water containing 0.05% Tween 20 surfactant to produce a 50 ppm spray solution.
Squash cotyledons were infested with cotton aphid (all life stages) 16–20 hours prior to application of spray solution. The solution was sprayed on both sides of each infested squash cotyledon (0.5 mL×2 each side) with a sweeping action until runoff. The plants were allowed to air dry and held for 3 days in a controlled room at 26° C. and 40% RH after which time the test was graded. Grading was by actual count using a dissecting microscope and comparison of test counts to the untreated check. Results are given in Tables 1–4 as percent control based on population reduction versus the untreated.

[5] = tested on: Two-spotted Spider Mite (Tetranychus urticae); assay: Insecticidal test for two-spotted spider mite, ovicide method; set-up: key: A: 90–100; B: 80–89; C: 70–79; D: 60–69; E: 50–59; F: less than 50; G: Inactive; details: cotton leaf discs, 6 days
Experimental: Insecticidal Test for Two-spotted Spider Mite (Tetranychus urticae)
Ten adult female two-spotted spider mites were placed on eight 2.2 cm leaf discs of cotton leaf, allowed to oviposit over 24 hours, and thereafter removed. […] Discs were placed on an agar substrate and held at 24° C. and 90% RH for 6 days.

[6] = tested on: Sweetpotato Whitefly (Bemisia tabacia); assay: Insecticidal test for sweetpotato whitefly, spray on cotton plants; set-up: key: A: 90–100; B: 80–89; C: 70–79; D: 60–69; E: 50–59; F: less than 50; G: Inactive; details: 200 ppm spray, 13 days, large nymphs
Experimental: Insecticidal Test for Sweetpotato Whitefly (Bemisia tabacia)
Four mg of each test compound was dissolved by adding 4 mL of a 90:10 acetone:ethanol solvent mixture to the vial containing the sample compound. This solution was added to 16 mL of water containing 0.05% Tween 20 surfactant to produce 20 mL of an 200 ppm spray solution.
Five-week-old cotton plants reared in a greenhouse were stripped of all foliage except for the two uppermost true leaves that were greater than 5 cm in diameter. These plants were then placed into a laboratory colony of whiteflies for two days for oviposition by the colony females. All whiteflies were then removed from the test plants with pressurized air. The spray solution was then applied to the test plants with a hand-held syringe fitted with hollow cone nozzle. One mL spray solution was applied to each leaf top and bottom for a total of 4 mL per plant. Four replications of each test compound utilized a total of 16 mL spray solution. Plants were air dried and then placed in a holding chamber (28° C. and 60% RH) for 13 days. Compound efficacy was evaluated by counting, under an illuminated magnifying glass, the number of large nymphs (3rd–4th instar) per leaf.
Percent control based on reduction of large nymphs of a test compound compared to solution-only (no test compound) sprayed plants is reported in Tables 1–4.

| Compound | TBW: activity at 400 ppm against tobacco budworm (% control rating) [1] | BAW: activity at 400 ppm against beet armyworm (% control rating) [2] | CL: activity at 400 ppm against cabbage looper (% control rating) [3] | CA: activity at 50 ppm against cotton aphid (% control rating) [4] | SM: activity against two-spotted spider mite (% control rating) [5] | WF: activity at 200 ppm against whitefly (% control rating) [6] |
| --- | --- | --- | --- | --- | --- | --- |
| COCCOc1cccc(-c2cc(C)c(-c3nc(-c4c(F)cccc4Cl)nn3C)s2)c1 | F (less than 50) | F (less than 50) | G | B (80–89) | C (70–79) | G |
| Cc1cc(-c2ccc(OC(F)(F)C(F)Cl)cc2)sc1-c1nc(-c2c(F)cccc2Cl)nn1C (stereo not drawn) | A (90–100) | A (90–100) | A (90–100) | D (60–69) | A (90–100) | F (less than 50) |
| Cc1cc(-c2ccc(OC(F)(F)C(Cl)Cl)cc2)sc1-c1nc(-c2c(F)cccc2Cl)nn1C | A (90–100) | A (90–100) | A (90–100) | A (90–100) | B (80–89) | E (50–59) |
| Cc1cc(-c2ccc(OC(F)(F)C(F)C(F)(F)F)cc2)sc1-c1nc(-c2c(F)cccc2Cl)nn1C (stereo not drawn) | A (90–100) | A (90–100) | A (90–100) | B (80–89) | A (90–100) | F (less than 50) |
| Cn1nc(-c2c(F)cccc2Cl)nc1-c1sc(-c2ccc(OC(F)(F)C(F)Br)cc2)cc1Cl (stereo not drawn) | A (90–100) | A (90–100) | A (90–100) | E (50–59) | C (70–79) | G |
| Cn1nc(-c2c(F)cccc2Cl)nc1-c1cc(-c2ccc3c(c2)OCC3)sc1Cl | F (less than 50) | G | A (90–100) | C (70–79) | G | G |
| Cn1nc(-c2c(F)cccc2Cl)nc1-c1cc(-c2cccc(OC(F)(F)F)c2)sc1Cl | G | G | A (90–100) | A (90–100) | A (90–100) | G |
| Cn1nc(-c2c(F)cccc2Cl)nc1-c1csc(-c2ccc(Cl)cc2F)c1 | F (less than 50) | G | A (90–100) | B (80–89) | A (90–100) | F (less than 50) |
| Cn1nc(-c2c(F)cccc2Cl)nc1-c1cc(-c2ccc(C(F)(F)F)cc2F)sc1Cl | F (less than 50) | A (90–100) | A (90–100) | F (less than 50) | G | F (less than 50) |
| Cn1nc(-c2c(F)cccc2Cl)nc1-c1cc(-c2ccc(Cl)cc2F)sc1Cl | F (less than 50) | A (90–100) | A (90–100) | F (less than 50) | A (90–100) | F (less than 50) |
